Each compound was assayed against TRKA (Homo sapiens (Human), UniProt P04629) (assay: Isolated TRK enzyme assay (HTRF KinEASE-TK), TRKA). Conditions: read-out: Trka enzyme (IC50).
Type: biochemical

Chain of TRKA (P04629 441-796): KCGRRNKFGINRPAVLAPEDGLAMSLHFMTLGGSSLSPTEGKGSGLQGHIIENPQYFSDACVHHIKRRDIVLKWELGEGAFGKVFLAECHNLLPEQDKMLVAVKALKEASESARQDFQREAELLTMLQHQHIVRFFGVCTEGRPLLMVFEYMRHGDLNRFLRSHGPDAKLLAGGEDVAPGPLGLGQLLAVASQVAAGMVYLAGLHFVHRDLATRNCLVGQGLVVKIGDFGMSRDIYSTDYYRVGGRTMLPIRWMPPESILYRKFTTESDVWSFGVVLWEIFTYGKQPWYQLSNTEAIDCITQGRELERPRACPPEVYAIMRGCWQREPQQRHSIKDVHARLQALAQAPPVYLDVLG

Structure (SMILES)	IC50 [nM]
CC(C)n1cc(C(=O)c2cncc(N(C)C(=O)Cc3ccc(Cl)cc3)c2)c2cncnc21 [Example 297, 2-(4-chlorophenyl)-N-{5-[(7-isopropyl-7H-pyrrolo[2,3-d]pyrimidin-5-yl)carbonyl]pyridin-3-yl}-N-methylacetamide]	299
CC(C)n1cc(C(=O)c2cncc(N(C)C(=O)Cc3ccc(C#N)cc3)c2)c2cncnc21 [Example 298, 2-(4-cyanophenyl)-N-{5-[(7-isopropyl-7H-pyrrolo[2,3-d]pyrimidin-5-yl)carbonyl]pyridin-3-yl}-N-methylacetamide]	1460
O=C(Cc1ccc(Cl)cc1)Nc1cncc(C(=O)c2cn(C3(CO)COC3)c3ncncc23)c1 [Example 299, 2-(4-Chloro-phenyl)-N-{5-[7-(3-hydroxymethyl-oxetan-3-yl)-7H-pyrrolo[2,3-d]pyrimidine-5-carbonyl]-pyridin-3-yl}-acetamide]	539
O=C(Cc1ccc(Cl)cn1)Nc1cncc(C(=O)c2cn(C3(CO)COC3)c3ncncc23)c1 [Example 301, 2-(5-chloropyridin-2-yl)-N-[5-({7-[3-(hydroxymethyl)oxetan-3-yl]-7H-pyrrolo[2,3-d]pyrimidin-5-yl}carbonyl)pyridin-3-yl]acetamide]	428
NC(=O)Cn1cc(C(=O)c2cncc(NC(=O)Cc3ccc(Cl)cc3)c2)c2cncnc21 [Example 303, N-(5-{[7-(2-amino-2-oxoethyl)-7H-pyrrolo[2,3-d]pyrimidin-5-yl]carbonyl}pyridin-3-yl)-2-(4-chlorophenyl)acetamide]	1220
CN(C)C(=O)Cn1cc(C(=O)c2cncc(NC(=O)Cc3ccc(Cl)cc3)c2)c2cncnc21 [Example 304, 2-{5-[(5-{[(4-chlorophenyl)acetyl]amino}pyridin-3-yl)carbonyl]-7H-pyrrolo[2,3-d]pyrimidin-7-yl}-N,N-dimethylacetamide]	3900
CNC(=O)Cn1cc(C(=O)c2cncc(NC(=O)Cc3ccc(Cl)cc3)c2)c2cncnc21 [Example 305, 2-(4-chlorophenyl)-N-[5-({7-[2-(methylamino)-2-oxoethyl]-7H-pyrrolo[2,3-d]pyrimidin-5-yl}carbonyl)pyridin-3-yl]acetamide]	2640
O=C(Cc1ccc(Cl)cc1)Nc1cncc(C(=O)c2c[nH]c3ncncc23)c1 [Example 308, 2-(4-Chlorophenyl)-N-[5-(7H-pyrrolo[2,3-d]pyrimidin-5-ylcarbonyl)pyridin-3-yl]acetamide]	592

These reach a lower IC50. Values come first.

IC50 [nM]	Structure (SMILES)
156	O=C(Cn1ccc(C(F)(F)F)n1)Nc1cncc(C(=O)c2cn(C3(CO)COC3)c3ncncc23)c1 [Example 302, N-[5-({7-[3-(hydroxymethyl)oxetan-3-yl]-7H-pyrrolo[2,3-d]pyrimidin-5-yl}carbonyl)pyridin-3-yl]-2-[3-(trifluoromethyl)-1H-pyrazol-1-yl]acetamide]
53.9	CC1(n2cc(C(=O)c3cncc(NC(=O)Cc4ccc(Cl)cc4)c3)c3cncnc32)COC1 [Example 309, 2-(4-chlorophenyl)-N-(5-{[7-(3-methyloxetan-3-yl)-7H-pyrrolo[2,3-d]pyrimidin-5-yl]carbonyl}pyridin-3-yl)acetamide]
52.2	O=C(Cc1ccc(C(F)(F)F)cc1)Nc1cncc(C(=O)c2cn(C3(CO)COC3)c3ncncc23)c1 [Example 300, N-{5-[7-(3-Hydroxymethyl-oxetan-3-yl)-7H-pyrrolo[2,3-d]pyrimidine-5-carbonyl]-pyridin-3-yl}-2-(4-trifluoromethyl-phenyl)-acetamide]
47.7	Cn1cc(C(=O)c2cncc(NC(=O)Nc3ccc(OC(F)(F)F)cc3)c2)c2cncnc21 [Example 296, 1-{5-[(7-methyl-7H-pyrrolo[2,3-d]pyrimidin-5-yl)carbonyl]pyridin-3-yl}-3-[4-(trifluoromethoxy)phenyl]urea]
31.9	Cn1cc(C(=O)c2cncc(NC(=O)Nc3cccc(C(F)(F)F)c3)c2)c2cncnc21 [Example 295, 1-{5-[(7-methyl-7H-pyrrolo[2,3-d]pyrimidin-5-yl)carbonyl]pyridin-3-yl}-3-[3-(trifluoromethyl)phenyl]urea]

Reference: patent US8846698B2, “Pyrrolo[2,3-d]pyrimidine tropomysin-related kinase inhibitors” (Pfizer Limited, priority 2011, dated 2014)
